This note sets out measurements from US7799821B2, “Therapeutic compounds” (Allergan, Inc., priority 2004, dated 2010).

SMILES strings stand for the structures. Like-named read-outs stand apart in the source and are kept apart here. Some results are limits rather than exact numbers.

Usually Ki stands for the dissociation constant of the complex between target and ligand, obtained from inhibition or displacement. Broadly, the EC50 is the concentration giving half of the maximal effect.

The target of one experiment is T1, human EP2 receptors (Homo sapiens, UniProt P43116).
T1 construct: expressed in transfected cells; host or cells: HEK 293
The experiment in a line: Competition radioligand binding ([3H]PGE2), EP2.

The target of a further experiment is T2, hEP3A/Gqi5 (Homo sapiens, UniProt P43115).
T2 construct: expressed in transfected cells; host or cells: HEK-293(EBNA)
T2 sequence (P43115 1-390): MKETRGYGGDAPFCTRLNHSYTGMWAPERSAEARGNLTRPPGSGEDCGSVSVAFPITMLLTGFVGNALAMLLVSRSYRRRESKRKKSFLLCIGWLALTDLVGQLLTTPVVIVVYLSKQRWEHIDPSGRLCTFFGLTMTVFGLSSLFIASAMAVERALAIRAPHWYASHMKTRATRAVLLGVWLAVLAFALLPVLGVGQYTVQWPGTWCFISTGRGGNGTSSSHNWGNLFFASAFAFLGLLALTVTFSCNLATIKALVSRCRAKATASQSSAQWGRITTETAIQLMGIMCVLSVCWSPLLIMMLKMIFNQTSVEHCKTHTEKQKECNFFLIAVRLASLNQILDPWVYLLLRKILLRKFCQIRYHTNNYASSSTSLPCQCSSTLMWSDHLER
The experiment in a line: FLIPR calcium signal, hEP3A. It counts as cell-based. The essentials:
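HEK-293(EBNA) cells stably expressing each human prostanoid receptor (EP2 and EP3A coupled via Gqs5/Gqi5 chimeras) were loaded with Fluo-4 AM, and peak calcium fluorescence was measured on FLIPR at 37° C. Compounds were tested at 10^−5 M or from 10^−11 to 10^−5 M in duplicate, n≥3, with response expressed relative to buffer and standard agonist controls.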

The next experiment concerns the target T3, EP4 receptors (Homo sapiens, UniProt P35408).
T3 construct: expressed in transfected cells; host or cells: HEK-293
The experiment in a line: Radioligand binding ([3H]PGE2), EP4. The essentials: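 Membranes from HEK-293 cells stably expressing the human receptor, resuspended at 1 mg/ml protein in TME buffer pH 7.4. Competition against 5 nM [3H]PGE2 for 60 min at 25 °C, ended by filtration on GF/B filters; non-specific binding defined with 10^−5 M unlabeled PGE2.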

Where [1] appears, read: unit inferred, read-out: EP2 data Ki.
The mark [2] stands for this setting: read-out: Other Receptors EC50 hEP3A.
Setting [3] is: unit inferred, read-out: EP4 data KI.
The mark [4] stands for this setting: pH 6.0, unit inferred, read-out: EP2 data Ki pH 6.0.

T1 sequence (P43116 whole entry): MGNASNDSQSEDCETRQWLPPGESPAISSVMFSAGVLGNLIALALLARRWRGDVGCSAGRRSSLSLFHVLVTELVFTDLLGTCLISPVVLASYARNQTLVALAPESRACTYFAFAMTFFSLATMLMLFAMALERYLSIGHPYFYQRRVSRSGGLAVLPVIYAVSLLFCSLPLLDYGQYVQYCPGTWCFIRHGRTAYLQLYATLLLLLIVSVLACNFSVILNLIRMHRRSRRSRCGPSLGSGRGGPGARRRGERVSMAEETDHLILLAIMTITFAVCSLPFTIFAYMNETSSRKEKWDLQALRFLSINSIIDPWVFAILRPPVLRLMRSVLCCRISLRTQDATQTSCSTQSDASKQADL
T3 sequence (P35408 whole entry): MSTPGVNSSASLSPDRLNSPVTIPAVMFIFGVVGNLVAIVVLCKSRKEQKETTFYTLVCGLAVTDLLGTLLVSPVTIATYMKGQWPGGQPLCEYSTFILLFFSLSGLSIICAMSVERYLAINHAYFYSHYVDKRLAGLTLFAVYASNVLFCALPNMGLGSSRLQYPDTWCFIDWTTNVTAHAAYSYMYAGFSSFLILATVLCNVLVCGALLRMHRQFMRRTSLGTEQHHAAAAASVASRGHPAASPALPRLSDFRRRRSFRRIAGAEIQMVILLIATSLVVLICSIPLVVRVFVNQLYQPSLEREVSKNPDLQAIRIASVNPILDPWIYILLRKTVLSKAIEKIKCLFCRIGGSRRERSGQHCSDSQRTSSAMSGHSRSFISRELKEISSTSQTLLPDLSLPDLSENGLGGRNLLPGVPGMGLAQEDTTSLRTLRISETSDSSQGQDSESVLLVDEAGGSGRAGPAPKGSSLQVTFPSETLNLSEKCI

For the compound `CCCCCCC(O)c1ccc(N2C(=O)CC[C@@H]2CCCc2ccc(C(=O)O)s2)cc1` (single isomer, unassigned) [drawing 156], the Ki at human EP2 receptors (setting [1]) was determined as 8 nM. Besides, the concentration giving a half-maximal response (EC50) on hEP3A/Gqi5 (setting [2]) turned out to be 33 nM.

As to `CCCCCC(O)c1ccc(N2C(=O)CC[C@@H]2CCCc2ccc(C(=O)O)s2)cc1` (single isomer, unassigned) [drawing 179], the results for the Ki at human EP2 receptors (setting [1]) and on EP4 receptors (setting [3]) were 15 nM and 4850 nM, respectively. Besides, on hEP3A/Gqi5 (setting [2]), the 50% effective concentration (EC50) was determined as 156 nM.

Take `CCCCCC(O)c1ccc(N2C(=O)CC[C@@H]2CCCc2ccc(C(=O)O)s2)cc1` (some centres unmarked) [drawing 173]: the values for the inhibition constant (Ki) on human EP2 receptors (setting [1]) and at EP4 receptors (setting [3]) were 23 nM and greater than 10000 nM, respectively. In addition, at hEP3A/Gqi5 (setting [2]), the half-maximal effective concentration (EC50) turned out to be 155 nM.

With `CCCCCC(=O)c1ccc(N2C(=O)CC[C@@H]2CCCc2ccc(C(=O)O)s2)cc1`, the results for the Ki on human EP2 receptors (setting [1]) and on EP4 receptors (setting [3]) were 31 nM and greater than 10000 nM, respectively. Moreover, the concentration for a half-maximal effect (EC50) on hEP3A/Gqi5 (setting [2]) was determined as 2340 nM.

With `CCCCCCC(O)c1ccc(N2C(=O)CC[C@@H]2CCCc2ccc(C(=O)O)s2)cc1` (single isomer, unassigned) [drawing 155], at human EP2 receptors (setting [1]), the inhibition constant (Ki) turned out to be 12 nM. For the same compound, at hEP3A/Gqi5 (setting [2]), the concentration for a half-maximal effect (EC50) was determined as 7 nM.

Consider `CCCCCCC(O)c1ccc(N2C(=O)CC[C@@H]2CCCc2ccc(C(=O)O)s2)cc1` (single isomer, unassigned) [drawing 183], for which the Ki on human EP2 receptors (setting [1]) worked out at 12 nM. In addition, the EC50 at hEP3A/Gqi5 (setting [2]) turned out to be 7 nM.

As for `CCCCCC(O)c1ccc(N2C(=O)CC[C@@H]2COCc2ccc(C(=O)O)s2)cc1` (single isomer, unassigned) [drawing 176], the Ki at human EP2 receptors (setting [1]) was 345 nM; on EP4 receptors (setting [3]) it was greater than 10000 nM. In addition, the EC50 on hEP3A/Gqi5 (setting [2]) was 153 nM.

For the compound `CCCCCC(O)c1ccc(N2C(=O)CC[C@@H]2CCCc2ccc(C(=O)O)s2)cc1` (single isomer, unassigned) [drawing 151], the Ki at human EP2 receptors (setting [1]) is 15 nM. In addition, at hEP3A/Gqi5 (setting [2]), the EC50 came out at 156 nM.

Turning to `CCCCCCC(O)c1ccc(N2C(=O)CC[C@@H]2CCCc2ccc(C(=O)O)s2)cc1` (single isomer, unassigned) [drawing 184], the Ki at human EP2 receptors (setting [1]) came out at 8 nM. Also, the EC50 on hEP3A/Gqi5 (setting [2]) was 33 nM.

On to `CCCCCC(O)c1ccc(N2C(=O)CC[C@@H]2COCc2ccc(C(=O)O)s2)cc1` (single isomer, unassigned) [drawing 177], for which the values for the Ki at human EP2 receptors (setting [1]) and at EP4 receptors (setting [3]) were 116 nM and 6030 nM, respectively. The EC50 at hEP3A/Gqi5 (setting [2]) is 1200 nM.

Take `CCCCCC(C)c1ccc([C@@H]2[C@@H](C/C=C\CCCC(=O)O)[C@H](C#N)C[C@H]2C)cc1` (some centres unmarked): the Ki at human EP2 receptors (Table 3, third part, read-out: BINDING-Ki (nM) EP2) was 1250 nM; on EP4 receptors (Table 3, third part, read-out: BINDING-Ki (nM) EP4), greater than 10000 nM. At hEP3A/Gqi5 (Table 3, third part, read-out: Ca2+ Signal-EC50 (nM) EP3), the EC50 came to 10000 nM.

Take `CC(C)(C)c1ccc(N2C(=O)CC[C@@H]2COCc2ccc(C(=O)O)o2)cc1`: the Ki is 189 nM at human EP2 receptors (setting [4]), 4000 nM on human EP2 receptors (setting [1]) and greater than 10000 nM on EP4 receptors (setting [3]). For the same compound, the concentration for a half-maximal effect (EC50) on hEP3A/Gqi5 (setting [2]) is greater than 10000 nM.

In the case of `CCCCCC(O)c1ccc(N2C(=O)CC[C@@H]2CCCc2ccc(C(=O)O)s2)cc1` (single isomer, unassigned) [drawing 178], the inhibition constant (Ki) is 21 nM on human EP2 receptors (setting [1]) and greater than 10000 nM on EP4 receptors (setting [3]). In addition, the EC50 on hEP3A/Gqi5 (setting [2]) is 12 nM.

In the case of `CCCCCC(O)c1ccc(N2C(=O)CC[C@@H]2COCc2ccc(C(=O)O)s2)cc1` (single isomer, unassigned) [drawing 148], the values for the Ki at human EP2 receptors (setting [1]) and on EP4 receptors (setting [3]) were 345 nM and greater than 10000 nM, respectively. At hEP3A/Gqi5 (setting [2]), the EC50 stood at 153 nM.

As for `CC(C)(C)c1ccc(N2C(=O)CC[C@@H]2COCc2ccc(C(=O)O)s2)cc1`, the Ki at human EP2 receptors (setting [4]) is 27 nM; at human EP2 receptors (setting [1]), 501 nM; on EP4 receptors (setting [3]), greater than 10000 nM. For the same compound, on hEP3A/Gqi5 (setting [2]), the concentration for a half-maximal effect (EC50) worked out at 19200 nM.

As for `CCCCCC(O)c1ccc(N2C(=O)CC[C@@H]2CCCc2ccc(C(=O)O)s2)cc1` (single isomer, unassigned) [drawing 180], the values for the Ki at human EP2 receptors (setting [1]) and at EP4 receptors (setting [3]) were 229 nM and 3840 nM, respectively. Also, the EC50 on hEP3A/Gqi5 (setting [2]) came to 71 nM.

`CCCCCC(O)c1ccc(N2C(=O)CC[C@@H]2CCCc2ccc(C(=O)O)s2)cc1` (some centres unmarked) [drawing 145]: the Ki was 23 nM at human EP2 receptors (setting [1]) and greater than 10000 nM on EP4 receptors (setting [3]). The EC50 on hEP3A/Gqi5 (setting [2]) came to 155 nM.

As for `CC(C)(C)c1ccc(N2C(=O)CC[C@@H]2CCCCCCC(=O)O)cc1`, the Ki on human EP2 receptors (setting [1]) and at EP4 receptors (setting [3]) was greater than 10000 nM each time. Further, the EC50 at hEP3A/Gqi5 (setting [2]) was determined as 19500 nM.

Take `CCCCCCC(O)c1ccc(N2C(=O)CC[C@@H]2COCc2ccc(C(=O)O)s2)cc1` (single isomer, unassigned) [drawing 152]: the Ki at human EP2 receptors (setting [1]) came to 229 nM. Further, the EC50 on hEP3A/Gqi5 (setting [2]) turned out to be 71 nM.
